Entries after “also recorded” stand apart in the source; their conditions may differ.
Key:
cardiovascular functions [1] = settings: squirrel monkeys; cited from earlier work
[2] = conscious rats; cited from earlier work
Aβ(1-40) peptide [3] = biological target: T1, Aβ(1-40) peptide (Homo sapiens, UniProt P05067); test: Thioflavin T fluorescence assay of Aβ(1-40) peptide aggregation; settings: for effect on Aβ(1-40) peptide aggregation: different concentrations of ligand
cardiovascular functions [4] = settings: anesthetized rats; cited from earlier work
cardiac myocytes = settings: cited from earlier work
Aβ(1-40) peptide [5] = biological target: T1, Aβ(1-40) peptide; test: Electrophoretic mobility shift (gel-shift) binding assay with [3H]-cocaine; settings: 7-μM [3H]-cocaine, 125-μM Aβ(1-40), pH 7.4; preliminary results
Text: The gel was cast in a vertical electrophoresis system of dimensions 7×8×0.15 cm and run at 100 V for 2 hr at room temperature. Lane I contains 7-μM [^3H]-cocaine only and Lane II contains 7-μM [^3H]-cocaine and 125-μM Aβ(1-40) peptide. The gel was then phosphor imaged; the contrast of the image was enhanced using ImageJ 1.34, in the process of which the contrast of the band streaks compared to background was lost. The square boxes correspond to the free [^3H]-cocaine trapped in the well; the circle corresponds to the [^3H]-cocaine bound to Aβ(1-40). […] The position of the peptide corresponded to the [^3H]-cocaine bound to Aβ(1-40) (circle) in the phosphorimage in FIG. 3A.
On the other hand, the theoretical isolectric point of the Aβ(1-40) peptide is 5.37 (Wiltfang et al., “Highly Conserved and Disease-Specific Patterns of Carboxyterminally Truncated Aβ Peptides 1-37/38/39 in Addition to 1-40/42 in Alzheimer's Disease and in Patients with Chronic Neuroinflammation,” J. Neurochem. 81:481-496 (2002), which is hereby incorporated by reference in its entirety). […] The imaging plate is then scanned by using a Molecular Dynamics Storm 860 PhosphorImager, and band intensities are quantified by using the IMAGEQUANT software from Molecular Dynamics. […]

[6] = biological target: nicotinic acetylcholine receptor (Mus musculus, UniProt P02716+P04756+P04760+P09690); settings: cited from earlier work
[7] = biological target: T2, muscle type nicotinic acetylcholine receptor expressed in BC3H1 cells (Mus musculus, UniProt P02716+P04756+P04760+P09690); test: Whole-cell current recording, cell-flow technique, carbamoylcholine-induced currents; assay type: cell-based; settings: 100-μM carbamoylcholine, listed as B55
T2 construct: nicotinic acetylcholine receptors expressed on the surface of BC3H1 cells; endogenous in cells; host or cells: BC3H1 cells
Experimental: Experiments were conducted at ˜22° C., −60 mV, and pH 7.4. The currents were induced by application of 100-μM carbamoylcholine only (lighter rising and falling line) or by a 2-second preincubation of the cells with 1-μM aptamer B55 followed by coapplication of the aptamer (at the same concentration used in preincubation) with 100-μM carbamoylcholine for 6 s (darker rising and falling line). The upper traces parallel to the abscissa represent the current amplitudes corrected for receptor desensitization that occurs during the rising phase. […] AO is the maximum current amplitude in the presence of 100-μM carbamoylcholine, and AI the maximum current amplitude in the presence of the same concentration of carbamoylcholine and different concentrations of aptamer B55. The whole-cell current was corrected for receptor desensitization. Each data point is the average of 2-4 measurements with at least two cells.
Carbamoylcholine-induced currents were recorded using the whole-cell configuration at room temperature (22-23° C.), pH 7.4, and a transmembrane voltage of −60 mV. The currents were amplified using an Axopatch 200B amplifier (Axon Instruments, Union City, Calif.) and filtered at 1 kHz (using a four-pole low-pass Bessel filter incorporated in the Axopatch 200B amplifier). […]

Aβ(1-40) peptide [8] = biological target: T1, Aβ(1-40) peptide; settings: Ylera et al. 2002; read-out: Kd(amyloid) for the Aβ(1-40) peptide; cited from earlier work

T1 sequence (P05067 672-711 limits assumed): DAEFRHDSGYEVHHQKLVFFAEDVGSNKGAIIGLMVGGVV
T2 sequence (P04756 21-457): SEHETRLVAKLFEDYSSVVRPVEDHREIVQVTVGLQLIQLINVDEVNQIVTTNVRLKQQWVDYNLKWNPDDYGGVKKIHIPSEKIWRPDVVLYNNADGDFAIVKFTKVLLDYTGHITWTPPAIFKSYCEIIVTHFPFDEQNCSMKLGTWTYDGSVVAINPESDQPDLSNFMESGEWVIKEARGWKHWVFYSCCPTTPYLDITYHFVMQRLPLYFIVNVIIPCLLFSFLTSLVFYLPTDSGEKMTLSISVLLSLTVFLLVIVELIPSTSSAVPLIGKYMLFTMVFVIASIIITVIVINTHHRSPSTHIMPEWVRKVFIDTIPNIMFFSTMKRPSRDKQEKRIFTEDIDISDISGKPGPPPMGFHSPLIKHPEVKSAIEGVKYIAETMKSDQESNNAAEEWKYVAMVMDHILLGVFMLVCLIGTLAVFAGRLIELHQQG
T2 sequence (P09690 24-501): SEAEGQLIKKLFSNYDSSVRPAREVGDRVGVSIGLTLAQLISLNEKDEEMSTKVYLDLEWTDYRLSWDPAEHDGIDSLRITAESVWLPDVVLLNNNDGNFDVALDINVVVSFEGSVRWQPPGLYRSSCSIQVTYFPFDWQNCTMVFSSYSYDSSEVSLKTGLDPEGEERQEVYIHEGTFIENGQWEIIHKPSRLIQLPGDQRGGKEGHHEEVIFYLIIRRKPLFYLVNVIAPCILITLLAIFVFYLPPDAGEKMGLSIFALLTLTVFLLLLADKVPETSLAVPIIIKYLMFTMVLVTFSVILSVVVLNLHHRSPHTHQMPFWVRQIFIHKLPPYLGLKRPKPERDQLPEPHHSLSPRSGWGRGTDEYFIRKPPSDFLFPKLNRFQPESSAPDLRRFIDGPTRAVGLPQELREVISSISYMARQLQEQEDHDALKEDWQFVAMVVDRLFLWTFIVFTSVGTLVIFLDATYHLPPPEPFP
T2 sequence (P04760 23-519): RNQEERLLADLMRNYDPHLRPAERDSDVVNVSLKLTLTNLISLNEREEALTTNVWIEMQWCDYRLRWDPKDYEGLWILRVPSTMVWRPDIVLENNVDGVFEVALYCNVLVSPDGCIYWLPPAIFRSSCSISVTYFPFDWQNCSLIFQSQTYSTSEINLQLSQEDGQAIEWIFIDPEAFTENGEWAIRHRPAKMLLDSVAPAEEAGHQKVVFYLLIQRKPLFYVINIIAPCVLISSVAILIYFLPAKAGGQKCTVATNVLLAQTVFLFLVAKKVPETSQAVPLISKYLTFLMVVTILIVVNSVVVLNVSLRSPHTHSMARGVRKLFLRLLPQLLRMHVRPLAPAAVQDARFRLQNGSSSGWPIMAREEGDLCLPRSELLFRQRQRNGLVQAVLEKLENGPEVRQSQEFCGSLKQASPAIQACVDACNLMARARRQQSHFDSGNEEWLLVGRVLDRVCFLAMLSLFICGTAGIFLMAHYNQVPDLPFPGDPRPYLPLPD
T2 sequence (P02716 25-520): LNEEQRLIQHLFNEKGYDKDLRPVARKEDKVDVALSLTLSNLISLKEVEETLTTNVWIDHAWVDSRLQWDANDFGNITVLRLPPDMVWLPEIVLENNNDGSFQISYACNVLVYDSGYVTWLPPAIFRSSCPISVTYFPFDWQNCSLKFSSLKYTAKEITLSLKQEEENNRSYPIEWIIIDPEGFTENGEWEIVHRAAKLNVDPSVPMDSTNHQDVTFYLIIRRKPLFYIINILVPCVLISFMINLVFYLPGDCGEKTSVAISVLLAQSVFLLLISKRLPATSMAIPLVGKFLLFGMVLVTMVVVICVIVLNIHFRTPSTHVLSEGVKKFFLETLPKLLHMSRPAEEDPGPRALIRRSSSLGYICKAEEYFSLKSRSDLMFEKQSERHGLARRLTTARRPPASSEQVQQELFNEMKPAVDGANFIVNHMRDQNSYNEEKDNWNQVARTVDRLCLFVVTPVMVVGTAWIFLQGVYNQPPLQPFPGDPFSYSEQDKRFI
Sequence of nicotinic acetylcholine receptor (P04756 21-457): as the sequence (P04756 21-457) above
Sequence of nicotinic acetylcholine receptor (P09690 24-501): as the sequence (P09690 24-501) above
Sequence of nicotinic acetylcholine receptor (P04760 23-519): as the sequence (P04760 23-519) above
Sequence of nicotinic acetylcholine receptor (P02716 25-520): as the sequence (P02716 25-520) above

COC(=O)C1C(O)CC2CCC1N2C (stereo not shown)
dose with no effect on cardiovascular functions in vivo, i.v. bolus (cardiovascular functions [1]): up to 10 mg/kg
brain tissue concentration corresponding to the lowest toxic daily dose [2]: 478.43±57.89
effect on Aβ(1-40) peptide aggregation (Aβ(1-40) peptide [3]; 50-μM Aβ(1-40), 37° C., 2 days): inhibit aggregation of Aβ(1-40) in a dose-dependent manner; also recorded: dose-dependent inhibition
concentration required to abolish the aggregation of Aβ(1-40) in the brain (estimated therapeutic concentration) (Aβ(1-40) peptide [3]; order-of-magnitude approximation calculated from FIG. 4A and CSF Aβ(1-40) concentration): ~40 ng/g
dose with no effect on cardiovascular functions in vivo, i.v. infusion (cardiovascular functions [4]): up to 1.5 mg/kg/min
concentration with no effect on cardiovascular functions in vitro (cardiac myocytes): up to 100 μM

C[C@]12N[C@H](Cc3ccccc31)c1ccccc12 [MK-801, dizocilpine, reference compound]
effect on Aβ(1-40) peptide aggregation (Aβ(1-40) peptide [3]; 50-μM Aβ(1-40), 37° C., 2 days): inhibit aggregation of Aβ(1-40) in a dose-dependent manner; also recorded: dose-dependent inhibition

c1ccc(C2(N3CCCCC3)CCCCC2)cc1 [PCP, phencyclidine, reference compound]
effect on Aβ(1-40) peptide aggregation at 1 mM (Aβ(1-40) peptide [3]; 1-mM PCP, 50-μM Aβ(1-40), 37° C., 2 days): abrogates Aβ aggregation; also recorded: abolished amyloid aggregation

COC(=O)C1=CC(=O)C2CC(S(=O)(=O)c3ccccc3)C1N2C (stereo not shown) [RCS-III-140A]
effect on Aβ(1-40) peptide aggregation (Aβ(1-40) peptide [3]; 50-μM Aβ(1-40), 37° C., 2 days): inhibit aggregation

CN1C2CC(S(=O)(=O)c3ccccc3)C1C(C(=O)[O-])=CC2=O.[Li+] (stereo not shown) [RCS-III-143]
effect on Aβ(1-40) peptide aggregation (Aβ(1-40) peptide [3]; 50-μM Aβ(1-40), 37° C., 2 days): inhibit aggregation

COC(=O)C1=C(c2ccccc2)C(=O)C2CC(S(=O)(=O)c3ccccc3)C1N2C (stereo not shown) [RCS-III-202A]
effect on Aβ(1-40) peptide aggregation (Aβ(1-40) peptide [3]; 50-μM Aβ(1-40), 37° C., 2 days): inhibit aggregation

CN1C2CC(S(=O)(=O)c3ccccc3)C1C(C(=O)[O-])=C(c1ccccc1)C2=O.[Li+] (stereo not shown) [RCS-III-218]
effect on Aβ(1-40) peptide aggregation (Aβ(1-40) peptide [3]; 50-μM Aβ(1-40), 37° C., 2 days): inhibit aggregation

CN1C2CCC1C(C(=O)O)C(c1ccc(Cl)cc1)C2 (stereo not shown) [RTI-4229-70]
effect on Aβ(1-40) peptide aggregation (Aβ(1-40) peptide [3]; 50-μM Aβ(1-40), 37° C., 2 days): dose-dependent inhibition
effect on Aβ(1-40) peptide aggregation (Aβ(1-40) peptide [3]; 50-μM Aβ(1-40), 37° C., 2 days, listed as RTI 4220-70): inhibit aggregation of Aβ(1-40) in a dose-dependent manner

COC(=O)C1C(OC(=O)c2ccccc2)CC2CCC1N2C (stereo not shown) [cocaine]
effect on Aβ(1-40) peptide aggregation (Aβ(1-40) peptide [3]; 50-μM Aβ(1-40), 37° C., 2 days): dose-dependent inhibition
binding of cocaine to the Aβ(1-40) peptide (Aβ(1-40) peptide [5]): binds; also recorded: direct binding

CN1C2CCC1C(C(=O)O)C(O)C2 (stereo not shown) [ecgonine]
effect on Aβ(1-40) peptide aggregation (Aβ(1-40) peptide [3]; 50-μM Aβ(1-40), 37° C., 2 days): inhibit aggregation of Aβ(1-40) in a dose-dependent manner; also recorded: dose-dependent inhibition

COC(=O)C1C(OC(C)=O)CC2CCC1N2C (stereo not shown) [reference compound]
alleviation of cocaine inhibition of the nicotinic acetylcholine receptor [6]: does not alleviate cocaine inhibition
effect on Aβ(1-40) peptide aggregation (Aβ(1-40) peptide [3]; 50-μM Aβ(1-40), 37° C., 2 days): does not inhibit aggregation; also recorded: dose-dependent acceleration

UUCACCG ((i.e., UUCACCG); as printed in the source, key not given here)
effect on Aβ(1-40) peptide aggregation at 500 μM (Aβ(1-40) peptide [3]; 500-μM oligonucleotide, 50-μM Aβ(1-40), 37° C., 2 days): abolished amyloid aggregation

B1: 5′-UUUACCGUAAGGCCUGUCUUCGUUUGACAGCGGCUUGUUGACCCUCACACUUUGUACCUGCUGCCAA-3′ (nucleic acid)
chain: UUUACCGUAAGGCCUGUCUUCGUUUGACAGCGGCUUGUUGACCCUCACACUUUGUACCUGCUGCCAA
modifications: chemistry not given here
inhibition of carbamoylcholine-induced currents from the nicotinic acetylcholine receptor [7]: inhibited carbamoylcholine-induced currents from the nicotinic acetylcholine receptor in a dose-dependent manner; also recorded: inhibition
Kd (Aβ(1-40) peptide [8]): 29 nM

— patent publication US9233106B2, “Inhibition of beta-amyloid peptide aggregation” (CORNELL RESEARCH FOUNDATION, INC., priority 2006, dated 2016)
